From patent US6673768B1, “Transgenic animal models for cardiac hypertrophy and methods of use thereof (treating)” (Board of Regents, The University of Texas System, priority 1997, dated 2004) come the findings set out here.

The test system of test [1] is neonatal rat cardiomyocytes. In words: AngII- and PE-induced hypertrophy of primary cardiomyocytes (anti-α-actinin staining, cell size and sarcomeric assembly). The test is classed as cell-based. Particulars: 72 hr; AngII 10 nM or PE 10 μM.
Description: A-F, Primary rat cardiocytes in serum-free medium were stimulated with AngII (10 nM) or PE (10 μm) for 72 hours. Cells were then fixed and stained with anti-α-actinin antibody to reveal sarcomeres and Hoechst stain to reveal nuclei.
To visualize primary cardiomyocytes and their sarcomeric organization, anti-α-actinin mouse monoclonal antibody was used (Sigma). […] Cells were washed in 1×phosphate-buffered saline (PBS), fixed in 3.7% paraformaldehyde for 5 minutes, washed three times with 1×PBS and then pre-blocked in 1×PBS containing 2% horse serum, 2% BSA, and 0.1% non-ionic detergent NP40 for 30 minutes. Anti-α-actinin antibody was added at a dilution of 1:800 in fresh preblock solution and incubated for an additional 30 minutes. Subsequently, the cells were washed three times in 1×PBS with 0.1% NP40. Anti-mouse TRITC-conjugated secondary antibody was then added at a dilution of 1:400 for 30 minutes in pre-block solution and the cells were again washed three times in 1×PBS containing 0.1% NP40. Nuclear staining for DNA was performed with 0.5 μg/ml of bisbenzimide in PBS for 15 minutes followed by three rinses with PBS.
For another test, the system named is ANF promoter. In words: ANF promoter-reporter (luciferase) activity in transfected cardiomyocytes exposed to agonists. The test is classed as cell-based, rat. The procedure:
(§1) FIG. 10 presents data showing the effects of adrenoceptor agonists on promoter-reporter activities for ANF, skeletal a-actin and cardiac a-actin, and a time course of effects of DOB on ANF message levels. FIGS. 10A, B, and C are bar graphs showing luciferase reporter levels after transfection of ANF, skeletal α-actin, and cardiac a-actin, respectively, into ventricular myocardial cells, and treatment, 24 hours after transfection, with PE (100 μM), DOB (10 μM), or TGF-β1 (1 ng/ml). Values are corrected for transfection efficiency and reported as the mean±SD from at least three experiments. FIG. 10D. Ventricular myocardial cells were switched to serum-free medium. DOB was added to the medium at various time points. “Control” represents cells treated with the DOB vehicle. 24 hours after incubation, total RNA was extracted and analyzed by Northern blot. Results are representative of n=3 or greater for each time point.
Transient transfection. It was necessary to culture the isolated cardiomyocytes in serum-free medium to eliminate effects on gene expression mediated through serum response elements. Primary myocardial cultures were first washed with serum-free growth medium and then maintained in serum-free Medium 199 supplemented with Nutridoma HU (Boehringer Mannheim Corporation, Indianapolis, Ind.) which contained human serum albumin, bovine insulin and human transferrin. Transfection were carried out by using a liposome-based transfecting agent, Lipofectamine (Life Technologies, Grand Island, N.Y.). The procedures used for transient transfection were followed as the manufacturer's instructions. The optimal values including DNA concentration, lipofectamine concentration, and time length for tansfection were determined prior to experiments carried out in this study. Briefly, for each transfection, 2 μg DNA and 20 μg lipofectamine were diluted into separate vials containing 300 μl serum-free nutridoma supplemented medium. The two solutions were then combined and incubated at room temperature for 15-45 minutes to allow DNA-liposome complexes to form. For each transfection, 2.4 ml of serum-free nutridoma supplemented medium were added to the tube containing the DNA-liposome complexes and the diluted mixture was overlaid onto the adherent cardiomyocytes that had been rinsed once with 2 ml of serum-free medium in a 60-mm tissue culture plate. The cell cultures were incubated at 37° C. in a C02 incubator containing 5% CO2 for 24 hours, at which time various test compounds were added. Promoter activities from cell extracts were assayed within 48 hours following the start of transfection.
For α1-adrenergic stimulation, 100 μM PE (Sigma, St. Louis, Mo.) was added to the cells. DOB (Gensia Laboratories, Ltd., Irving, Calif.), a selective β1-adrenergic agonist, was added at a concentration of 10 μM. To correct for variation in transfection efficiencies, pβGal-Control was used as an internal control. Chemiluminescent β-galactosidase activity was assayed by using an aliquot of the same cell lysates collected for the luciferase assay and measured in the same luminometer as described below.
Firefly luciferase assay. The firefly luciferase assay is based upon a commercial (Promega, Madison, Wis.) long term “glow” type of bioluminescence assay. Briefly, activation of luciferin results in the formation of an enzyme-bound luciferyl adenylate (luciferyl-AMP). […]

For a further test, the system named is cardiac α-actin promoter. In words: Cardiac α-actin promoter-reporter (luciferase) activity in transfected cardiomyocytes exposed to agonists. The test is classed as cell-based, rat. As to conditions: for induction of cardiac α-actin promoter-reporter activity over control cells: PE 100 μM, TGF-β1 1 ng/ml. The method, then: as §1
Transient transfection. It was necessary to culture the isolated cardiomyocytes in serum-free medium to eliminate effects on gene expression mediated through serum response elements. Primary myocardial cultures were first washed with serum-free growth medium and then maintained in serum-free Medium 199 supplemented with Nutridoma HU (Boehringer Mannheim Corporation, Indianapolis, Ind.) which contained human serum albumin, bovine insulin and human transferrin. Transfection were carried out by using a liposome-based transfecting agent, Lipofectamine (Life Technologies, Grand Island, N.Y.). The procedures used for transient transfection were followed as the manufacturer's instructions. The optimal values including DNA concentration, lipofectamine concentration, and time length for tansfection were determined prior to experiments carried out in this study. […]
(§2) For α1-adrenergic stimulation, 100 μM PE (Sigma, St. Louis, Mo.) was added to the cells. […] Chemiluminescent β-galactosidase activity was assayed by using an aliquot of the same cell lysates collected for the luciferase assay and measured in the same luminometer as described below. […]

The test system of test [2] is skeletal α-actin promoter. In words: Skeletal α-actin promoter-reporter (luciferase) activity in transfected cardiomyocytes exposed to agonists. In kind it is cell-based, rat. The method, then: as §1
Transient transfection. […] The optimal values including DNA concentration, lipofectamine concentration, and time length for tansfection were determined prior to experiments carried out in this study. […]
as §2

Test [3] relates to tetracycline-controlled transactivator (tTA). In words: tTA-dependent luciferase target gene expression in primary rat cardiomyocytes. The test is classed as cell-based. The method, then:
Cardiomyocytes were co-transfected with tTA expression plasmid pUHD15-1 and either a tTA-dependent luciferase construct pUHC13-3 or empty vector as control. 16 hours after transfection, cells were incubated in either medium without doxcycline (DOX) or medium with doxcycline. […] Open circles, empty vector, no DOX; filled circles, empty vector, plus DOX; open triangles, pUHC 13-3, no DOX; filled triangles, pUHC13-3, plus DOX. FIG. 11B is a bar graph depicting the ability of tTA to stimulate transcription of the target gene and the inhibitory effect of doxcycline 12 hours after transfection.
Tetracycline-controlled transactivator (tTA) expression plasmid pUHD15-1 encodes chimeric protein tTA under the control of the human cytomegalovirus (CMV) promoter and enhancer. tTA consists of amino acid residues 1-207 from the tetR protein and residues 363-490 from VP16 (Gossen and Bujard (1992) Proc. Natl. Acad. Sci. USA 89:5547-5551.
Plasmid pUHD10-3 contains a chimeric tet operon/CMV minimal promoter upstream of multiple cloning sites (Bujard, 1996). pUHC13-3 is a firefly luciferase reporter gene expression plasmid driven by the chimeric tet operon/CMV minimal promoter (Gossen and Bujard (1992).
The firefly luciferase gene as a reporter gene was under control of the chimeric tet operon/CMV minimal promoter in pUHC13-3. Transient transfections were carried out as described in Example 3. […]

For a further test, the system named is CaM kinase II. In words: Autonomous CaM kinase II activity in neonatal rat heart tissue slices. In kind it is biochemical. As to conditions: for CaMKII autonomous activation, increase over unstimulated heart tissues: 30 seconds after treatment, DOB 10 μM, ISO 100 μM. The procedure: FIG. 9 is a bar graph depicting stimulation of CaMKII activity by b1-adrenergic receptor in neonate rat heart tissue. Neonatal (1-4 day old) heart tissue slices were isolated and treated with isoproterenol (ISO, 100 μM), dolbutamine (DOB, 10 μM), or vehicle alone (control). Propanolol (PROP, 20 μM) was added 2 minutes before agonists were added. After 30 seconds of treatment, autonomous CaMKII activity was assayed. Data are shown as percentage of the ratio of calcium independent activity divided by total activity and represented as the mean±SD from at least three experiments.
Determination of autonomous CaM kinase II activity. CaM kinase II autonomous activity was determined in rat heart tissue homogenates using the synthetic peptide substrate, autocamtide-2 (KKALRRQETVDAL) (Mar et al. (1990) Mol. Cell. Biol. 10:4271-4283; and Farrance et al. (1992) J. Biol. Chem. 267:17234-17240) as exogenous substrate. […] Autonomous CaM kinase II activity was assayed by the phosphorylation of autocamtide-2 in the absence of Ca^2+/calmodulin and expressed as a proportion of activity obtained in the presence of these cofactors. Tissue slices were incubated in the presence or absence of various drug compounds for required time. At termination of the incubation the tissue slices were homogenized in ice-cold buffer (20 mM Tris-HCl, pH 7.5, 0.5 mM EGTA, 1.0 mM EDTA, 2.0 mM dithiothreitol, 10 mM sodium pyrophosphate, 0.4 mM ammonium molybdate, […]) by sonication. Supernatant were cleared by centrifugation (12,000×g, 2 minutes) and then assayed in a reaction mixture containing 50 mM PIPES (pH 7.0), 10 mM MgCl2 0.1 mg/ml bovine serum albumin, […], 20 mM [γ-^32P] […] Endogenous protein was sedimented by centrifugation and supernatants containing autocamtide-2 were spotted onto p81 phosphocellulose strips, washed 5 times, dried and ^32P-PO4 content was quantitated by Cerenkov radiation.
These experiments determined whether signaling through β1-adrenergic receptor subtype could activate cardiac CaMKII. […]

The subject of a further test is ANF mRNA. In words: ANF message level by Northern analysis in neonatal cardiocytes. The test is classed as cell-based, rat. The procedure: FIG. 10 presents data showing the effects of adrenoceptor agonists on promoter-reporter activities for ANF, skeletal a-actin and cardiac a-actin, and a time course of effects of DOB on ANF message levels. FIGS. 10A, B, and C are bar graphs showing luciferase reporter levels after transfection of ANF, skeletal α-actin, and cardiac a-actin, respectively, into ventricular myocardial cells, and treatment, 24 hours after transfection, with PE (100 μM), DOB (10 μM), or TGF-β1 (1 ng/ml). Values are corrected for transfection efficiency and reported as the mean±SD from at least three experiments. FIG. 10D. Ventricular myocardial cells were switched to serum-free medium. […] 24 hours after incubation, total RNA was extracted and analyzed by Northern blot. […]
Northern Analysis. […] After washing at high stringency (0.1×SSPE, 0.1% SDS, 65° C.), hybridized biotinylated cDNA were detected by using Chemiluminescent Detection System (TROPIX, Inc., Bedford, Mass.) and then exposed to X-ray film. The ANF bands were quantitated with a Howteck gel scanner (PDI, Huntington station, N.Y.) and normalized to the 28 S rRNA signal to correct for loading and/or transfer efficiencies.
Primary cultures of neonatal cardiocytes were kept in serum-free medium and β1 agonist, DOB, was applied to the cells at various times. ANF message RNA was evaluated in the end by northern analysis protocols as described above. […]

The mark [4] stands for this setting: PE exposure, construct includes PERE motif.
Setting [5] is: DOB 10 μM, added 24 hours after transfection.

With `CNC[C@H](O)c1cccc(O)c1` [PE, phenylephrine], the “cardiomyocyte size and sarcomeric assembly after exposure to agonist” value in test [1] is “dramatic increase in size and sarcomeric assembly”. Moreover, the “transactivation of ANF reporter activity over control cells” value in the test with ANF promoter (PE 100 μM) is 200%. Moreover, the “activation of ANF50 (NP338) nested deletion promoter-reporter construct” value with ANF promoter (PE exposure, construct has lost PERE motif) is given as “not”. Besides, in the test with ANF promoter (setting [4]), the “activation of ANF135 (NP325) nested deletion promoter-reporter construct” value is listed as “activated” and the “activation of ANF700 (NP337) nested deletion promoter-reporter construct” value was “activated”. In the test on cardiac α-actin promoter, the “induction of cardiac α-actin promoter-reporter activity over control cells” value is given as “not significantly stimulated”. Moreover, the “transactivation of skeletal α-actin reporter activity over control cells” value in test [2] (PE 100 μM) amounted to 200%.
Regarding `C[C@H]1c2cccc(O)c2C(O)=C2C(=O)[C@]3(O)C(O)=C(C(N)=O)C(=O)[C@@H](N(C)C)[C@@H]3[C@@H](O)[C@@H]21` [doxcycline], the “transactivation of the tTA-dependent target gene” value in test [3] (1 μg/ml after transfection, tTA-transfected cells) is “markedly repressed”. The “low level expression of the target gene caused by the treatment itself” value in test [3] (1 μg/ml, 12 hour post-transfection) is listed as ~4 fold.
On to “TGF-β1: type β-transforming growth factor”, for which the “induction of cardiac α-actin promoter-reporter activity over control cells” value in the test with cardiac α-actin promoter is listed as 700%.
As to `CC(C)NCC(O)c1ccc(O)c(O)c1` (stereo not drawn) [ISO, isoproterenol], in the test on CaM kinase II, the “CaMKII autonomous activation, increase over unstimulated heart tissues” value is reported as ~170%.
`CC(C)NCC(O)COc1cccc2ccccc12` (stereo not drawn) [PROP, propanolol]: in the test on CaM kinase II (PROP 20 μM added prior to agonist), the “effect on DOB- or ISO-induced CaMKII autonomous activity” value is “blocked activation”.
In the case of `CC(CCc1ccc(O)cc1)NCCc1ccc(O)c(O)c1` (stereo not drawn) [DOB, dobutamine], in the test with ANF mRNA (24 hours after DOB exposure), the “decline of ANF mRNA compared to control values” stood at 75%. For the same molecule, in the test on ANF mRNA (within 16 hours of DOB exposure, serum-free medium), the “abundance of ANF message relative to control cultures” value was “about half”. Moreover, in the test on ANF promoter (setting [5]), the “decrease of ANF promoter-reporter activity” value is “approximately 50%”. Further, in the test on cardiac α-actin promoter (setting [5]), the “decrease of cardiac α-actin promoter-reporter activity” value is reported as “approximately 50%”. Also, the “decrease of skeletal α-actin promoter-reporter activity” value in test [2] (setting [5]) is listed as “approximately 50%”. The “CaMKII autonomous activation, increase over unstimulated heart tissues” value in the test with CaM kinase II is recorded as ~170%.
